# A melting point compilation (Tetko et al.; mined from patent text by program, amines drawn as free bases though some values may be those of a salt)
row,Structure (SMILES),melting point [°C]
1,O=C(c1cc2cc3[nH]c(=O)oc3cc2[nH]1)N1CCC(OCc2ccccc2)CC1,258 to 261
2,Fc1cc(F)c2[nH]c3c(c2c1)CC(N1CCCCC1)CC3 (stereo not drawn),> 290
3,O=c1n(-c2cc(O)c([N+](=O)[O-])cc2F)nc2ccc(Cl)cn12,207 to 209
4,CCOC(=O)N1CCC(=C2c3ccc(Cl)cc3SCc3cccnc32)CC1,154 to 157
5,O=C(NC(c1ccccc1)c1ccccc1)[C@H]1Cc2c([nH]c3ccccc23)CN1,191 to 196
6,COCOc1ccc(CCC(=O)c2c(OC)cc(OC)c(CCC(C)C)c2O)cc1OC,69 to 70
7,COC(=O)c1ccc(-c2nc(OC(C)=O)c(C)s2)cc1,124 to 125
8,O=C(O)COc1ccc(SCc2ccc(OCc3cc(Cl)cc(Cl)c3)cc2)c2c1CCC2,134 to 135
9,Cc1nc(-c2ccc(I)cc2)no1,121 to 122
10,Cc1nnc(-c2ccc3occ(-c4cc(Cl)ccc4Cl)c3c2)o1,185 to 186
11,CSc1nccn1NCc1cc(C(C)(C)C)c(O)c(C(C)(C)C)c1,110 to 113
12,O=S1(=O)N=C(NC23CC4CC(CC(C4)C2)C3)Nc2cc(Cl)sc21,339 to 340
13,COc1cc(OCCNC(=O)C2Cc3ccccc3N2S(=O)(=O)c2ccc(-c3cc(C(F)(F)F)ccc3Cl)cc2)ccc1C(=O)O (stereo not drawn),98 to 104
14,Nc1nc2ccccc2c2c1nc(C1CCOC1)n2CCOc1ccccc1 (stereo not drawn),236
15,CCCCN(CCCC)c1ccc(C=CC=Cc2ccc(C=CC3=C(C#N)C(=C(C#N)C#N)OC3(c3ccccc3)C(F)(F)F)s2)c(OC)c1 (stereo not drawn),125 to 140
16,O=Cc1cccc(-c2cc3nccnc3[nH]2)c1,268 to 270
17,O=Cc1cc2c(s1)CCc1cc(=O)n(-c3ccc(Cl)cc3)nc1-2,242 to 244
18,O=c1nc(-c2ccc(Br)cc2)c2c(=O)nc(-c3ccc(Br)cc3)c1=2,> 400

# More lines, now with the values ahead:
row,melting point [°C],Structure (SMILES)
1,167 to 168,Cn1cccc1C1=CC(=O)c2ncccc2C1=O
2,258 to 260,CCOC(=O)c1nnc2ccc(-c3cccs3)cc2c1O
3,89 to 91,CCOC(=O)CCc1cn(C)nc1O
4,208 to 209,Cc1nc(N2CCN(Cc3ccccc3)C2=O)sc1C(=O)NCc1cc(F)cc(F)c1
5,82 to 84,CCCCNC(=O)C(C)n1cc(C)c(-c2ccccc2)n1 (stereo not drawn)
6,184 to 189,O=C(O)C1=Cc2cc(OCc3ccccc3)ccc2OC1
7,181 to 183,N#Cc1c(O)nsc1S(=O)(=O)Cc1ccccc1
8,230,CCCc1nc(C=Cc2ccccc2)c(C(=O)O)n1Cc1cc2c(cc1Cl)OCO2
9,125 to 126,CCc1nc(/C=C/c2cn(-c3ccccc3)nc2OCc2ccc(OCc3nc(/C=C/C(=O)O)oc3C)c(OC)c2)cs1
10,167 to 169,COC(=O)c1ccc(NC(=O)c2ccccc2C)nc1
11,139 to 140,Cc1cccc(CSc2c(O)cc(-c3ccccc3)oc2=O)c1
12,158 to 160,CCCSC1=NSc2cc(C)cnc2N1Cc1ccc(-c2ccccc2-c2nnn[nH]2)cc1
13,176 to 177,O=C(N[C@H](Cc1ccccc1)C(=O)O)OCc1ccc2[nH]c(-c3ccccc3)cc2c1
14,124 to 126,O=C(O)Cc1ccccc1Cc1nc2c(F)c(F)cc(F)c2s1
15,135 to 136,CC(C)Oc1ccc(C(=O)NCCCCCCCNC(=O)c2ccc(OC(C)C)cc2)cc1
16,129 to 131,O=S(=O)(N[C@H](CO)[C@@H](c1ccccc1)C(F)(F)F)c1ccc(Cl)cc1
17,173 to 175,Cc1ccc2c(c1)c(=O)c(S(C)=O)nn2C (stereo not drawn)
18,180 to 181,Cc1cc(-n2cnn(Cc3ccccc3)c2=O)sc1C(=O)NCc1cccnc1
19,231 to 233,C[C@H]1CCCN(C(=O)[C@@H]2Cc3ccccc3N2c2ccc(=O)n(C)n2)C1
20,99 to 101,Cc1c(C)c2c(c(C)c1OCc1ccccc1)C(CN1CCCC1CO)C(C)(C)O2 (mixture of isomers)
